Laboratory results from patent US20130184257A1, “PIPERIDINYL-SUBSTITUTED LACTAMS AS GPR119 MODULATORS” (priority 2010, published 2013).

Test system: modified version of the GPR119 receptor (94% identity to human receptor) stably expressed in HEK-293 cells
Assay: cAMP Production Assay (LANCE cAMP kit, TR-FRET)
Assay type: cell-based
Details: for cAMP production in HEK-293 cells: HEK-293 cells expressing modified GPR119, test compounds 0.2 nM to 10 μM, one-hour incubation at ambient temperature; for Fold over baseline: increase in cAMP relative to basal levels, 1.5-fold or greater = agonist activity
Method: The assay utilized HEK-293 cells that stably express a modified version of the GPR119 receptor (94% identity to human receptor), under the control of a CMV promoter containing a tet-on element for tetracycline-inducible expression. GPR119 agonist-induced cyclic AMP (cAMP) production was measured in this cell line using the LANCE cAMP kit (Perkin Elmer, Waltham, Mass.). To generate a working stock of cells for the assay, cells were treated overnight with 1 μg/mL doxycycline at 37° C. in the presence of 5% CO2 to induce receptor expression. Cells were then harvested by enzymatic dissociation with 0.05% trypsin, resuspended in freezing medium (DMEM growth medium with 10% each of fetal bovine serum and DMSO), aliquoted and frozen at −80° C. On the day of the assay, frozen cells were thawed, washed 1× in PBS and resuspended in Hank's buffered salt solution (HBSS) containing 5 mM HEPES, 0.1% BSA and Alexa Fluor 647-conjugated anti-cAMP antibody (diluted 1:100). The cell suspension was then transferred to a Proxiplate Plus white 384-well assay plate (Perkin-Elmer) at 2000 cells/well. Test compounds at final concentrations ranging from 0.2 nM to 10 μM were added to the assay plate, followed by a one-hour incubation at ambient temperature (volume=10 μL/well). DMSO concentration was held constant at 0.5%. After incubation with test compounds, 10 μL of a detergent buffer containing a biotinylated cAMP/Europium-conjugated streptavidin complex (Europium-labeled cAMP tracer) were added to each well on the assay plate, followed by a 2-hour incubation at ambient temperature. During this incubation cAMP released from lysed cells competes with the Europium-labeled cAMP tracer for binding to the Alexa Fluor 647-conjugated antibody. […] Cellular cAMP levels were then determined by interpolation of raw signal data using a cAMP standard curve. Compounds were determined to have agonist activity if they stimulated a 1.5-fold or greater increase in cAMP relative to basal levels.

**Q.** `CC(F)(F)c1noc(N2CCC(N3CC[C@H](Oc4cc(F)c(S(C)(=O)=O)cc4F)C3=O)CC2)n1` [Example 63, (S)-3-(2,5-difluoro-4-(methylsulfonyl)phenoxy)-1-(1-(3-(1,1-difluoroethyl)-1,2,4-oxadiazol-5-yl)piperidin-4-yl)pyrrolidin-2-one] was tested. Which “cAMP production in HEK-293 cells” value did it give?
**A.** Its value is 21.6 nmol.

**Q.** What about the Fold over baseline of the same compound?
**A.** Its Fold over baseline is 3.6.

**Q.** `CS(=O)(=O)c1cc(F)c(N[C@H]2CCCN(C3CCN(c4noc(C(F)F)n4)CC3)C2=O)cc1F` [Example 33, (S)-3-(2,5-difluoro-4-(methylsulfonyl)phenylamino)-1′-(5-(difluoromethyl)-1,2,4-oxadiazol-3-yl)-1,4′-bipiperidin-2-one] was tested. Which “cAMP production in HEK-293 cells” value did it give?
**A.** The value was 10.1 nmol.

**Q.** And the Fold over baseline?
**A.** Its Fold over baseline is 2.5.

**Q.** For `CC(F)(F)c1noc(N2CCC(N3CCC[C@H](Nc4c(F)cc(S(C)(=O)=O)cc4F)C3=O)CC2)n1` [Example 62, (S)-3-((2,6-difluoro-4-(methylsulfonyl)phenyl)amino)-1′-(3-(1,1-difluoroethyl)-1,2,4-oxadiazol-5-yl)-[1,4′-bipiperidin]-2-one], which “cAMP production in HEK-293 cells” value is on record?
**A.** The value was 16.2 nmol.

**Q.** And the Fold over baseline?
**A.** The Fold over baseline was 2.6.

**Q.** Which results are given for `CC(F)(F)c1nc(N2CCC(N3CC[C@H](Nc4c(F)cc(S(C)(=O)=O)cc4F)C3=O)CC2)no1` [Example 65, (S)-3-((2,6-difluoro-4-(methylsulfonyl)phenyl)amino)-1-(1-(5-(1,1-difluoroethyl)-1,2,4-oxadiazol-3-yl)piperidin-4-yl)pyrrolidin-2-one]?
**A.** cAMP production in HEK-293 cells: 16.1 nmol; Fold over baseline: 2.6

**Q.** Which results are given for `CS(=O)(=O)c1cc(F)c(N[C@H]2CCN(C3CCN(c4noc(C(F)(F)F)n4)CC3)C2=O)c(F)c1` [Example 22, (S)-3-(2,6-difluoro-4-(methylsulfonyl)phenylamino)-1-(1-(5-(trifluoromethyl)-1,2,4-oxadiazol-3-yl)piperidin-4-yl)pyrrolidin-2-one]?
**A.** cAMP production in HEK-293 cells: 17.6 nmol; Fold over baseline: 3.6

**Q.** With `CC(F)(F)c1nc(N2CCC(N3CC[C@H](Nc4ccc(S(C)(=O)=O)cc4F)C3=O)CC2)no1` [Example 49, (S)-1-(1-(5-(1,1-difluoroethyl)-1,2,4-oxadiazol-3-yl)piperidin-4-yl)-3-(2-fluoro-4-(methylsulfonyl)phenylamino)pyrrolidin-2-one] as the compound, how does the “cAMP production in HEK-293 cells” value read?
**A.** The value was 20.8 nmol.

**Q.** And the Fold over baseline?
**A.** The Fold over baseline was 2.7.

**Q.** How did the “cAMP production in HEK-293 cells” value turn out when `CS(=O)(=O)c1cc(F)c(O[C@H]2CCN(C3CCN(c4noc(C(F)(F)F)n4)CC3)C2=O)c(F)c1` [Example 28, (S)-3-(2,6-difluoro-4-(methylsulfonyl)phenoxy)-1-(1-(5-(trifluoromethyl)-1,2,4-oxadiazol-3-yl)piperidin-4-yl)pyrrolidin-2-one] was run?
**A.** Its value is 101.5 nmol.

**Q.** And the Fold over baseline?
**A.** Its Fold over baseline is 5.0.

**Q.** With `CS(=O)(=O)c1cc(F)c(N[C@H]2CCCN(C3CCN(c4nc(C(F)(F)F)no4)CC3)C2=O)cc1F` [Example 9, (S)-3-(2,5-difluoro-4-(methylsulfonyl)phenylamino)-1′-(3-trifluoromethyl-1,2,4-oxadiazol-5-yl)-1,4′-bipiperidin-2-one] as the compound, how does the “cAMP production in HEK-293 cells” value read?
**A.** Its value is 11.4 nmol.

**Q.** And the Fold over baseline?
**A.** The Fold over baseline was 3.5.

**Q.** Which “cAMP production in HEK-293 cells” value does the source give for `CS(=O)(=O)c1ccc(N[C@H]2CCN(C3CCN(c4noc(C5(C(F)(F)F)CC5)n4)CC3)C2=O)c(F)c1` [Example 46, (S)-3-(2-fluoro-4-(methylsulfonyl)-phenylamino)-1-(1-(5-(1-(trifluoromethyl)-cyclopropyl)-1,2,4-oxadiazol-3-yl)piperidin-4-yl)pyrrolidin-2-one] here?
**A.** Its value is 8.2 nmol.

**Q.** What about the Fold over baseline of the same compound?
**A.** Its Fold over baseline is 2.7.

**Q.** With `CS(=O)(=O)c1ccc(N[C@H]2CCN(C3CCN(c4noc(N5CCCC5)n4)CC3)C2=O)c(F)c1` [Example 51] as the compound, how does the “cAMP production in HEK-293 cells” value read?
**A.** Its value is 16.3 nmol.

**Q.** What about the Fold over baseline of the same compound?
**A.** Its Fold over baseline is 2.9.

**Q.** Which “cAMP production in HEK-293 cells” value does the source give for `CC(C)c1noc(N2CCC(N3CC[C@H](Nc4ccc(S(C)(=O)=O)cc4F)C3=O)CC2)n1` [Example 8, (S)-3-(2-fluoro-4-(methylsulfonyl)phenylamino)-1-(1-(3-isopropyl-1,2,4-oxadiazol-5-yl)piperidin-4-yl)pyrrolidin-2-one] here?
**A.** The value was 25.0 nmol.

**Q.** What about the Fold over baseline of the same compound?
**A.** The Fold over baseline was 4.9.

**Q.** Which “cAMP production in HEK-293 cells” value does the source give for `CC(F)(F)c1nc(N2CCC(N3CC[C@H](Oc4cc(F)c(S(C)(=O)=O)cc4F)C3=O)CC2)no1` [Example 52, (S)-3-(2,5-difluoro-4-(methylsulfonyl)phenoxy)-1-(1-(5-(1,1-difluoroethyl)-1,2,4-oxadiazol-3-yl)piperidin-4-yl)pyrrolidin-2-one] here?
**A.** The value was 15.5 nmol.

**Q.** What about the Fold over baseline of the same compound?
**A.** Its Fold over baseline is 5.8.

**Q.** Which “cAMP production in HEK-293 cells” value does the source give for `CC(F)(F)c1nc(N2CCC(N3CCC[C@H](Nc4c(F)cc(S(C)(=O)=O)cc4F)C3=O)CC2)no1` [Example 50, (S)-3-(2,6-difluoro-4-(methylsulfonyl)phenylamino)-1′-(5-(1,1-difluoroethyl)-1,2,4-oxadiazol-3-yl)-1,4′-bipiperidin-2-one] here?
**A.** Its value is 3.9 nmol.

**Q.** What about the Fold over baseline of the same compound?
**A.** Its Fold over baseline is 1.7.

**Q.** How did the “cAMP production in HEK-293 cells” value turn out when `CS(=O)(=O)c1ccc(N[C@H]2CCN(C3CCN(c4noc(C5CCC5)n4)CC3)C2=O)c(F)c1` [Example 40, (S)-1-(1-(5-cyclobutyl-1,2,4-oxadiazol-3-yl)piperidin-4-yl)-3-(2-fluoro-4-(methylsulfonyl)-phenylamino)pyrrolidin-2-one] was run?
**A.** The value was 17.5 nmol.

**Q.** And the Fold over baseline?
**A.** Its Fold over baseline is 5.7.

**Q.** Which results are given for `CCS(=O)(=O)c1ccc(N[C@H]2CCN(C3CCN(c4noc(C(F)(F)F)n4)CC3)C2=O)c(F)c1` [Example 34, (S)-3-(4-(ethylsulfonyl)-2-fluorophenylamino)-1-(1-(5-(trifluoromethyl)-1,2,4-oxadiazol-3-yl)piperidin-4-yl)pyrrolidin-2-one]?
**A.** cAMP production in HEK-293 cells: 7.3 nmol; Fold over baseline: 2.8

**Q.** For `CC(C)c1nc(N2CCC(N3CC[C@H](Oc4c(F)cc(S(C)(=O)=O)cc4F)C3=O)CC2)no1` [Example 20, (S)-3-(2,6-difluoro-4-(methylsulfonyl)phenoxy)-1-(1-(5-isopropyl-1,2,4-oxadiazol-3-yl)piperidin-4-yl)pyrrolidin-2-one], which “cAMP production in HEK-293 cells” value is on record?
**A.** Its value is 19.4 nmol.

**Q.** And the Fold over baseline?
**A.** Its Fold over baseline is 3.7.

**Q.** What does the source list for `CC(C)(C)c1noc(N2CCC(N3CC[C@H](Oc4cc(F)c(S(C)(=O)=O)cc4F)C3=O)CC2)n1` [Example 3, (S)-1-(1-(3-tert-butyl-1,2,4-oxadiazol-5-yl)piperidin-4-yl)-3-(2,5-difluoro-4-(methylsulfonyl)phenoxy)pyrrolidin-2-one]?
**A.** cAMP production in HEK-293 cells: 21.7 nmol; Fold over baseline: 3.3

**Q.** How did the “cAMP production in HEK-293 cells” value turn out when `CC(C)c1nc(N2CCC(N3CCC[C@H](Nc4c(F)cc(S(C)(=O)=O)cc4F)C3=O)CC2)no1` [Example 12, (S)-3-(2,6-difluoro-4-(methylsulfonyl)phenylamino)-1′-(5-isopropyl-1,2,4-oxadiazol-3-yl)-1,4′-bipiperidin-2-one] was run?
**A.** Its value is 16.1 nmol.

**Q.** What about the Fold over baseline of the same compound?
**A.** The Fold over baseline was 3.4.
